# Test results taken from patent publication US20090099169A1, “Benzofuran Compounds As EP1 Receptor Antagonists” (GLAXO GROUP LIMITED, priority 2006, published 2009).
# Counter-ions that a name gives are not always drawn.
# Experiments:
# human EP1 receptor = target: T1, human EP1 receptor (Homo sapiens, UniProt P34995); test: human EP1 calcium mobilisation assay; type: cell-based; set-up: expressed in transfected cells; conditions: CHO-K1 cells, antagonism of PGE2; averages of a number of experiments; read-out: functional pKi value (human EP1 calcium mobilisation assay) (converted)
# T1 sequence (P34995 1-402): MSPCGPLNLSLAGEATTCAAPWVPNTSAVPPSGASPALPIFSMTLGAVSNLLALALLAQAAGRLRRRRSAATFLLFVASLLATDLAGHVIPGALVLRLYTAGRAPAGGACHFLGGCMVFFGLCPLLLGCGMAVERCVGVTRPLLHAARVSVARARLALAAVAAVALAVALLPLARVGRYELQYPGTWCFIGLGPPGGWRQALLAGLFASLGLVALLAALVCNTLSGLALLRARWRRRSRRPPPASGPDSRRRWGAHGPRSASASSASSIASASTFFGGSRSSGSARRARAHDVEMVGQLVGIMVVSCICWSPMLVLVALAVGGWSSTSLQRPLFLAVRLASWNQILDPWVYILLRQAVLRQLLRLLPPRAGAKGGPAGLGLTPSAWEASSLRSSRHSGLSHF
# Procedure, shortened: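 CHO-K1 cells stably transfected with human EP1 or EP3, loaded with Fluo-4 after 24 h culture, treated with compound, then challenged with PGE2. Calcium-driven fluorescence read on FLIPR; pIC50 is half-maximal inhibition of PGE2-induced calcium mobilisation, from curve fitting.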
# human TP receptor = target: T2, human TP receptor (Homo sapiens, UniProt P21731); test: human TP calcium mobilisation assay; type: cell-based; conditions: CHO-K1 cells, antagonism of U46619; averages of a number of experiments; read-out: functional pKi value (human TP calcium mobilisation assay) (converted)
# T2 construct: expressed in transfected cells; host or cells: CHO-K1
# T2 sequence (P21731 1-343): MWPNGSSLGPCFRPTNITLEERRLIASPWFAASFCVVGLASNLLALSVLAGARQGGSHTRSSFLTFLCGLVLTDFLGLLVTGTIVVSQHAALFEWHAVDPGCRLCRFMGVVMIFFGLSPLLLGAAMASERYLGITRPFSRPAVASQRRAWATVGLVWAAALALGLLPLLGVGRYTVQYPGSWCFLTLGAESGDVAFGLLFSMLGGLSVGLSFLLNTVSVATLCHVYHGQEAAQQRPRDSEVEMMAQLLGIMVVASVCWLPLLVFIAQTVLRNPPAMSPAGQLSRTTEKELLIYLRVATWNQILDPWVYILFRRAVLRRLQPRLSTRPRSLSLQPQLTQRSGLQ
# Procedure: To determine if a compound has agonist or antagonist activity at the TP receptor a functional calcium mobilisation assay may be performed. Briefly, the antagonist properties of compounds are assessed by their ability to inhibit the mobilisation of intracellular calcium ([Ca^2+]i) in response to activation of TP receptors by the stable TXA2 mimetic U46619 (9,11-dideoxy-11α,9α-epoxy-methanoprostaglandin F2α; commercially available from e.g Sigma-Aldrich). Increasing concentrations of antagonist reduce the amount of calcium that a given concentration of U46619 can mobilise. The net effect is to displace the U46619 concentration-effect curve. The amount of calcium produced is assessed using a calcium-sensitive fluorescent dye such as Fluo-4, AM and a suitable instrument such as a Fluorimetric Imaging Plate Reader (FLIPR). Increasing amounts of [Ca^2+]i produced by receptor activation increase the amount of fluorescence produced by the dye and give rise to an increasing signal. The signal may be detected using the FLIPR instrument and the data generated may be analysed with suitable curve-fitting software. The agonist activity of the compounds are determined by their ability to cause an increase in intracellular mobilisation in the absence of U46619.
# The human TP calcium mobilisation assay utilises Chinese hamster ovary-K1 (CHO-K1) cells into which a stable (pCIN; BioTechniques 20 (1996): 102-110) vector containing TP cDNA has previously been transfected. Cells are cultured in suitable flasks containing culture medium such as DMEM:F-12 supplemented with 10% v/v foetal calf serum, 2 mM L-glutamine, 0.25 mg/ml geneticin, 100 μM flurbiprofen and 10 μg/ml puromycin.
# For assay, cells are harvested using a proprietary reagent that dislodges cells such as Versene. Cells are re-suspended in a suitable quantity of fresh culture media for introduction into a 96-well plate. Following incubation for 24 hours at 37° C. the culture media is replaced with a medium containing Fluo-4 and the detergent pluronic acid, and a further incubation takes place. Concentrations of compounds are then added to the plate in order to construct concentration-effect curves. This may be performed on the FLIPR in order to assess the agonist properties of the compounds. Concentrations of U46619 are then added to the plate in order to assess the antagonist properties of the compounds.
# The data so generated may be analysed by means of a computerised curve-fitting routine. The concentration of compound that elicits a half-maximal inhibition of the calcium mobilisation induced by U46619 (pIC50) may then be estimated, and the percentage activation caused by the compounds directly can be used to determine if there is any agonism present.
SMILES,Ki (human EP1 receptor),Ki (human TP receptor)
"Cc1cc(C(=O)NN2CCOCC2)nn1Cc1cc(Cl)cc2cc(C3CCCCC3)oc12 [Example 28, 1-[(5-Chloro-2-cyclohexyl-1-benzofuran-7-yl)methyl]-5-methyl-N-4-morpholinyl-1H-pyrazole-3-carboxamide]",≤ 316 nM,> 3160 nM
"CC(C)c1cc2cc(Cl)cc(Cc3ccc(C(=O)O)o3)c2o1 [Example 1, 5-{[5-Chloro-2-(1-methylethyl)-1-benzofuran-7-yl]methyl}-2-furancarboxylic Acid]",≤ 316 nM,< 31.6 nM
"Cc1cc(C(=O)Nc2ccc(CN3CC[C@@H](O)C3)cc2)nn1Cc1cc(Cl)cc2cc(C(C)C)oc12 [Example 17, 1-{[5-Chloro-2-(1-methylethyl)-1-benzofuran-7-yl]methyl}-N-(4-{[(3R)-3-hydroxy-1-pyrrolidinyl]methyl}phenyl)-5-methyl-1H-pyrazole-3-carboxamide hydrochloride]",≤ 316 nM,> 3160 nM
"Cc1cc(C(=O)O)nn1Cc1cc(Cl)cc2cc(C(C)C)oc12 [Example 3, 1-{[5-Chloro-2-(1-methylethyl)-1-benzofuran-7-yl]methyl}-5-methyl-1H-pyrazole-3-carboxylic Acid]",≤ 316 nM,< 3160 nM
"CCNCc1ccc(NC(=O)c2cc(C)n(Cc3cc(Cl)cc4cc(C(C)C)oc34)n2)cc1 [Example 15, 1-{[5-Chloro-2-(1-methylethyl)-1-benzofuran-7-yl]methyl}-N-{4-[(ethylamino)methyl]phenyl}-5-methyl-1H-pyrazole-3-carboxamide hydrochloride]",≤ 316 nM,> 3160 nM
"Cc1cc(C(=O)Nc2ccc(CN3CCC(O)CC3)cc2)nn1Cc1cc(Cl)cc2cc(C(C)C)oc12 [Example 16, 1-{[5-Chloro-2-(1-methylethyl)-1-benzofuran-7-yl]methyl}-N-{4-[(4-hydroxy-1-piperidinyl)methyl]phenyl}-5-methyl-1H-pyrazole-3-carboxamide hydrochloride]",≤ 316 nM,> 3160 nM
